Data published in publication PMC8872791, “MadR mediates acyl CoA-dependent regulation of mycolic acid desaturation in mycobacteria” (Proceedings of the National Academy of Sciences of the …, 2022).

What was measured:
Type in all cases: binding
[1] = target: T1, MadR (mycolic acid desaturase regulator, Rv0472c) (Mycobacterium tuberculosis, UniProt P9WMD9); test: intrinsic tryptophan fluorescence quenching
[2] = target: T1, MadR (mycolic acid desaturase regulator, Rv0472c); test: intrinsic tryptophan fluorescence quenching; EMSA shows release from desA1/desA2 promoters
[3] = target: T1, MadR (mycolic acid desaturase regulator, Rv0472c); test: intrinsic tryptophan fluorescence quenching (binds, but does not release promoter DNA)

T1 sequence (P9WMD9 whole entry, looked up): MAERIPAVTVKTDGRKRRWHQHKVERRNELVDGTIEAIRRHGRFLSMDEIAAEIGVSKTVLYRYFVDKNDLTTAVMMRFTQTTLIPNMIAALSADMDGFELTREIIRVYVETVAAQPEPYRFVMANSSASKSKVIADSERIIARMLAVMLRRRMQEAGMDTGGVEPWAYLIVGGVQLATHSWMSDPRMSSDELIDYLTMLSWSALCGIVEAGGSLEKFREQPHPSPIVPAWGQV

CCCCCCCCCCCCCC(=O)SCCNC(=O)CCNC(=O)[C@H](O)C(C)(C)COP(=O)(O)OP(=O)(O)OC[C@H]1O[C@@H](n2cnc3c(N)ncnc32)[C@H](O)[C@@H]1OP(=O)(O)O [C14:0-CoA, myristoyl-CoA]
Kd [1]: 12.4 µM

CCCCCCCCCCCCCCCC(=O)SCCNC(=O)CCNC(=O)[C@H](O)C(C)(C)COP(=O)(O)OP(=O)(O)OC[C@H]1O[C@@H](n2cnc3c(N)ncnc32)[C@H](O)[C@@H]1OP(=O)(O)O [C16:0-CoA, palmitoyl-CoA]
Kd [2]: 10.7 µM

CCCCCCCCCCCCCCCCCC(=O)SCCNC(=O)CCNC(=O)[C@H](O)C(C)(C)COP(=O)(O)OP(=O)(O)OC[C@H]1O[C@@H](n2cnc3c(N)ncnc32)[C@H](O)[C@@H]1OP(=O)(O)O [C18:0-CoA, stearoyl-CoA]
Kd [2]: 7.73 µM

CCCCCCCC/C=C\CCCCCCCC(=O)SCCNC(=O)CCNC(=O)[C@H](O)C(C)(C)COP(=O)(O)OP(=O)(O)OC[C@H]1O[C@@H](n2cnc3c(N)ncnc32)[C@H](O)[C@@H]1OP(=O)(O)O [C18:1-CoA, oleoyl-CoA]
Kd [3]: 9.55 µM

CCCCC/C=C\C/C=C\CCCCCCCC(=O)SCCNC(=O)CCNC(=O)[C@H](O)C(C)(C)COP(=O)(O)OP(=O)(O)OC[C@H]1O[C@@H](n2cnc3c(N)ncnc32)[C@H](O)[C@@H]1OP(=O)(O)O [C18:2-CoA, linoleoyl-CoA]
Kd [3]: 9.88 µM

CCCCCCCCCCCCCCCCCCCCCCCC(=O)SCCNC(=O)CCNC(=O)[C@H](O)C(C)(C)COP(=O)(O)OP(=O)(O)OC[C@H]1O[C@@H](n2cnc3c(N)ncnc32)[C@H](O)[C@@H]1OP(=O)(O)O [C24:0-CoA, lignoceroyl-CoA]
Kd [2]: 18.1 µM
